According to PMC12113347, “Compound 3d Attenuates Metabolic Dysfunction-Associated Steatohepatitis via Peroxisome Proliferator-Activated Receptor Pathway Activation and Inhibition of Inflammatory and Apoptotic Signaling” (Metabolites, 2025):
Read-outs that look alike come from different tables or passages of the source.

Experiment: Pharmacokinetics of 3d in male SD rats, tail vein injection
Type: in vivo
Conditions: 30 mg/kg; for half-life: SD, iv
Experimental: The pharmacokinetics of 3d in vivo were evaluated using male SD rats. Following a 12 h fast, the rats were administered 3d (30 mg/kg) via gavage or tail vein injection, respectively, and blood samples were collected within 24 h for analysis of 3d blood concentration via HPLC. The PK parameters were calculated using the DAS 3.0, and oral bioavailability (F) was obtained by the following formula.F = AUCpo × Di.v/AUCi.v × Dpo × 100%(1)

[1] = male, rat, blood, SD rats, intravenous

AUC(0-t) (SD rats, intravenous): 108,480 ng/L*min
AUC(0-∞) (SD rats, intravenous): 136,923 ng/L*min
AUMC(0-t) (SD rats, intravenous): 11,816,712
AUMC(0-∞) (SD rats, intravenous): 29,781,860
Cz (SD rats, intravenous): 107 ng/L
VRT(0-t) (SD rats, intravenous): 10,194 min^2
VRT(0-∞) (SD rats, intravenous): 66,630 min^2
Zeta (SD rats, intravenous): 0.004 min⁻¹
half-life (male, rat, blood, SD rats, intravenous, read-out: T1/2): 3.03 h
half-life (male, rat, blood, rats, intravenous administration, read-out: half-life (converted)): 3 h
Cmax [1]: 1.09 ng/mL
Tmax [1]: 5 min
MRT last (male, rat, blood, SD rats, intravenous, read-out: MRT(0-t) (converted)): 1.8 h
MRT inf (male, rat, blood, SD rats, intravenous, read-out: MRT(0-∞) (converted)): 3.62 h
AUC intravenous relative to oral administration (rats): four times greater
SMILES: CNc1ccc(C(=O)/C=C/c2cc(C)c(OC(C)(C)C(=O)OC(C)(C)C)c(C)c2)cc1 [3d]
